The test system of the series is CCRIS mutagenicity, Ames/micronucleus/aberration tests. The series is described as follows: CCRIS mutagenicity studies.
Where [1] appears, read: Test System: AMES SALMONELLA TYPHIMURIUM, Strain/Indicator: TA98, Metabolic Activation: NONE, Method: PREINCUBATION
Where [2] appears, read: Test System: AMES SALMONELLA TYPHIMURIUM, Strain/Indicator: TA100, Metabolic Activation: NONE, Method: PREINCUBATION
[3] abbreviates: Test System: AMES SALMONELLA TYPHIMURIUM, Strain/Indicator: TA98, Metabolic Activation: NONE, Method: STANDARD PLATE.
Setting [4] is: Test System: AMES SALMONELLA TYPHIMURIUM, Strain/Indicator: TA98, Metabolic Activation: RAT, LIVER, S-9, AROCLOR 1254, Method: STANDARD PLATE.
Setting [5] is: Test System: AMES SALMONELLA TYPHIMURIUM, Strain/Indicator: TA100, Metabolic Activation: NONE, Method: STANDARD PLATE.
Where [6] appears, read: Test System: AMES SALMONELLA TYPHIMURIUM, Strain/Indicator: TA100, Metabolic Activation: RAT, LIVER, S-9, AROCLOR 1254, Method: STANDARD PLATE.

Results on six compounds are retold here after PubChem BioAssay AID1259407 (Chemical Carcinogenesis Research Information System (CCRIS), 2018).

Active and inactive are the calls of the source. The rule behind the calls is not given here.

With `C=C(C)c1ccccc1`, the mutagenic call is, setting by setting: (End Point: In vitro chromosomal aberrations, Test System: Chinese Hamster ovary (CHO) cells, Metabolic Activation: None) “inactive; negative”; (End Point: In vitro chromosomal aberrations, Test System: Chinese Hamster ovary (CHO) cells, Metabolic Activation: Rat, Liver, S-9, Aroclor 1254) “inactive; negative”; (End Point: In vivo micronucleus, Test System: Peripheral blood normochromatic erythrocytes, Species: Mouse, Strain/Sex: B6C3F1/ Female, Route: Inhalation) “active; positive”; (End Point: In vivo micronucleus, Test System: Peripheral blood normochromatic erythrocytes, Species: Mouse, Strain/Sex: B6C3F1/ Male, Route: Inhalation) “active; positive”; (Test System: AMES SALMONELLA TYPHIMURIUM, Strain/Indicator: TA97, Metabolic Activation: HAMSTER, LIVER, S-9, AROCLOR 1254 (10 OR 30%), Method: PREINCUBATION) “inactive; negative”; (Test System: AMES SALMONELLA TYPHIMURIUM, Strain/Indicator: TA97, Metabolic Activation: NONE, Method: PREINCUBATION) “inactive; negative”. In addition, the mutagenic call (Test System: AMES SALMONELLA TYPHIMURIUM, Strain/Indicator: TA97, Metabolic Activation: RAT, LIVER, S-9, AROCLOR 1254 (10 OR 30%), Method: PREINCUBATION) is “inactive; negative”; the mutagenic call (Test System: AMES SALMONELLA TYPHIMURIUM, Strain/Indicator: TA98, Metabolic Activation: HAMSTER, LIVER, S-9, AROCLOR 1254 (10%), Method: PREINCUBATION) is “inactive; negative”; the mutagenic call (Test System: AMES SALMONELLA TYPHIMURIUM, Strain/Indicator: TA98, Metabolic Activation: HAMSTER, LIVER, S-9, AROCLOR 1254 (30%), Method: PREINCUBATION) was “inactive; negative”; the mutagenic call under setting [1] is “inactive; negative”; the mutagenic call (Test System: AMES SALMONELLA TYPHIMURIUM, Strain/Indicator: TA98, Metabolic Activation: RAT, LIVER, S-9, AROCLOR 1254 (10%), Method: PREINCUBATION) is “inactive; negative”; the mutagenic call (Test System: AMES SALMONELLA TYPHIMURIUM, Strain/Indicator: TA98, Metabolic Activation: RAT, LIVER, S-9, AROCLOR 1254 (30%), Method: PREINCUBATION) was “inactive; negative”. Besides, the mutagenic call is “inactive; negative” (Test System: AMES SALMONELLA TYPHIMURIUM, Strain/Indicator: TA100, Metabolic Activation: HAMSTER, LIVER, S-9, AROCLOR 1254 (10%), Method: PREINCUBATION); “inactive; negative” (Test System: AMES SALMONELLA TYPHIMURIUM, Strain/Indicator: TA100, Metabolic Activation: HAMSTER, LIVER, S-9, AROCLOR 1254 (30%), Method: PREINCUBATION); “inactive; negative” under setting [2]; “inactive; negative” (Test System: AMES SALMONELLA TYPHIMURIUM, Strain/Indicator: TA100, Metabolic Activation: RAT, LIVER, S-9, AROCLOR 1254 (10%), Method: PREINCUBATION); “inactive; negative” (Test System: AMES SALMONELLA TYPHIMURIUM, Strain/Indicator: TA100, Metabolic Activation: RAT, LIVER, S-9, AROCLOR 1254 (30%), Method: PREINCUBATION); “inactive; negative” (Test System: AMES SALMONELLA TYPHIMURIUM, Strain/Indicator: TA1535, Metabolic Activation: HAMSTER, LIVER, S-9, AROCLOR 1254 (10 OR 30%), Method: PREINCUBATION). Further, the mutagenic call (Test System: AMES SALMONELLA TYPHIMURIUM, Strain/Indicator: TA1535, Metabolic Activation: NONE, Method: PREINCUBATION) is “inactive; negative” and the mutagenic call (Test System: AMES SALMONELLA TYPHIMURIUM, Strain/Indicator: TA1535, Metabolic Activation: RAT, LIVER, S-9, AROCLOR 1254 (10 OR 30%), Method: PREINCUBATION) is “inactive; negative”.

Turning to `O=C(O)COc1cc(Cl)c(Cl)cc1Cl`, the mutagenic call was “inactive; negative” (End Point: IN VITRO CHROMOSOMAL ABERRATIONS, Test System: CHINESE HAMSTER OVARY CELLS, Metabolic Activation: NONE); “active; positive; precipitation occurred at all doses” (End Point: IN VITRO CHROMOSOMAL ABERRATIONS, Test System: CHINESE HAMSTER OVARY CELLS, Metabolic Activation: RAT, LIVER, S-9, AROCLOR 1254); “inactive; negative” (Test System: AMES SALMONELLA TYPHIMURIUM, Strain/Indicator: TA97, Metabolic Activation: NONE, Method: STANDARD PLATE); “inactive; negative” (Test System: AMES SALMONELLA TYPHIMURIUM, Strain/Indicator: TA97, Metabolic Activation: RAT, LIVER, S-9, AROCLOR 1254, Method: STANDARD PLATE); “inactive; negative” (Test System: AMES SALMONELLA TYPHIMURIUM, Strain/Indicator: TA98, Metabolic Activation: NONE); “inactive; negative” under setting [3]. Further, the mutagenic call is “inactive; negative” (Test System: AMES SALMONELLA TYPHIMURIUM, Strain/Indicator: TA98, Metabolic Activation: RAT, LIVER, S-9, AROCLOR 1254); “inactive; negative” under setting [4]; “inactive; negative” (Test System: AMES SALMONELLA TYPHIMURIUM, Strain/Indicator: TA100, Metabolic Activation: NONE); “inactive; negative” under setting [5]; “inactive; negative” (Test System: AMES SALMONELLA TYPHIMURIUM, Strain/Indicator: TA100, Metabolic Activation: RAT, LIVER, S-9, AROCLOR 1254); “inactive; negative” under setting [6]. Besides, the mutagenic call is “inactive; negative” (Test System: AMES SALMONELLA TYPHIMURIUM, Strain/Indicator: TA102, Metabolic Activation: NONE); “inactive; negative” (Test System: AMES SALMONELLA TYPHIMURIUM, Strain/Indicator: TA102, Metabolic Activation: NONE, Method: STANDARD PLATE); “inactive; negative” (Test System: AMES SALMONELLA TYPHIMURIUM, Strain/Indicator: TA102, Metabolic Activation: RAT, LIVER, S-9, AROCLOR 1254); “inactive; negative” (Test System: AMES SALMONELLA TYPHIMURIUM, Strain/Indicator: TA102, Metabolic Activation: RAT, LIVER, S-9, AROCLOR 1254, Method: STANDARD PLATE); “inactive; negative” (Test System: AMES SALMONELLA TYPHIMURIUM, Strain/Indicator: TA104, Metabolic Activation: NONE); “inactive; negative” (Test System: AMES SALMONELLA TYPHIMURIUM, Strain/Indicator: TA104, Metabolic Activation: RAT, LIVER, S-9, AROCLOR 1254).

Turning to `Cc1c2c(cc3c1ccc1ccccc13)C=C[C@@H](O)[C@@H]2O`, the mutagenic call (Test System: CHINESE HAMSTER V-79, Strain/Indicator: V-79/8-AZAGUANINE, Metabolic Activation: NONE, Method: STANDARD PLATE) was “active; positive”.

For the compound `O=C1c2ccc3ccccc3c2-c2c1ccc1ccccc21`, the mutagenic call runs as follows: under setting [3], “inactive; negative”; under setting [4], “active; positive”; under setting [5], “inactive; negative”; under setting [6], “active; positive”.

Turning to `Cc1cc(=O)oc2c3c4c(cc12)CCCN4CCC3`, the mutagenic call is, setting by setting: (Test System: AMES SALMONELLA TYPHIMURIUM, Strain/Indicator: TA1538, Metabolic Activation: NONE, Method: STANDARD PLATE) “inactive; negative”; (Test System: AMES SALMONELLA TYPHIMURIUM, Strain/Indicator: TA1538, Metabolic Activation: RAT, LIVER, S-9, AROCLOR 1254, Method: STANDARD PLATE) “active; positive”.

As for `C/C(O)=C(\N=O)C(=O)N(c1ccccc1)N(C)N=O`, the mutagenic call is, setting by setting: under setting [1], “active; positive”; (Test System: AMES SALMONELLA TYPHIMURIUM, Strain/Indicator: TA98, Method: PREINCUBATION) “active; positive”; under setting [2], “active; positive”; (Test System: AMES SALMONELLA TYPHIMURIUM, Strain/Indicator: TA100, Method: PREINCUBATION) “active; positive”.
